# Measured values as given in patent publication US10398723B1, “Hyaluronan-containing composition and use thereof for mitigation and/or prevention of inflammation and/or pain” (Viscos, LLC, priority 2015, dated 2019).
# System: whole blood culture
# Assay: inflammatory cell activation (CD69, CD25 expression) in whole blood culture
# Type: cell-based
# Conditions: samples from human subjects; 0.006 mg/mL, 0.05 g/mL or 0.4 mg/mL in culture medium; dose-dependent
# Protocol: A dose of 0.006 mg/mL, […] or 0.4 mg/mL (concentration of formulation in culture medium) was employed, but any dose less than 0.006 mg/mL or greater than 0.4 mg/mL or between 0.006 mg/mL and 0.4 mg/mL (concentration of formulation in any diluent) is likewise within the scope of this disclosure. […] Activation of inflammatory cells was measured, and is verified by assays known in the art, by expression of CD69, a protein expressed on activated white blood cells including T lymphocytes, NK cells, monocytes and PMN cells. Activation of inflammatory cells was measured, and is verified by assays known in the art, by expression of CD25, the alpha chain of the low affinity interleukin-2 (IL-2) receptor. […] An increase such as that observed in this Example may be, by way of example and not of limitation, of at least about 1%, or of at least about 2%, or of at least about 5%, or of at least about 10%, or of at least about 20%, or of at least about 30%, or of at least about 40%, or of at least about 50%, or of at least about 60%, or of at least about 70%, or of at least about 80%, or of at least about 90%. A statistically significant decrease is a function of sample size and variability. […]
row,Compound,inflammatory cell activation
1,"CS(C)(=O)=O [MSM, methylsulfonylmethane]",decrease
2,Hyaluronan [HA],decrease
